Laboratory results from patent US9499553B2 (CHUGAI SEIYAKU KABUSHIKI KAISHA, priority 2013, dated 2016).

Each molecule was assayed against T1, human NaPi-IIb (Homo sapiens, UniProt O95436) (assay: Inhibitory effect on 33PO4 uptake into human NaPi-IIb-expressing CHO cells). Settings: read-out: IC50.
T1 construct: expressed in transfected cells
T1 sequence (O95436 1-690): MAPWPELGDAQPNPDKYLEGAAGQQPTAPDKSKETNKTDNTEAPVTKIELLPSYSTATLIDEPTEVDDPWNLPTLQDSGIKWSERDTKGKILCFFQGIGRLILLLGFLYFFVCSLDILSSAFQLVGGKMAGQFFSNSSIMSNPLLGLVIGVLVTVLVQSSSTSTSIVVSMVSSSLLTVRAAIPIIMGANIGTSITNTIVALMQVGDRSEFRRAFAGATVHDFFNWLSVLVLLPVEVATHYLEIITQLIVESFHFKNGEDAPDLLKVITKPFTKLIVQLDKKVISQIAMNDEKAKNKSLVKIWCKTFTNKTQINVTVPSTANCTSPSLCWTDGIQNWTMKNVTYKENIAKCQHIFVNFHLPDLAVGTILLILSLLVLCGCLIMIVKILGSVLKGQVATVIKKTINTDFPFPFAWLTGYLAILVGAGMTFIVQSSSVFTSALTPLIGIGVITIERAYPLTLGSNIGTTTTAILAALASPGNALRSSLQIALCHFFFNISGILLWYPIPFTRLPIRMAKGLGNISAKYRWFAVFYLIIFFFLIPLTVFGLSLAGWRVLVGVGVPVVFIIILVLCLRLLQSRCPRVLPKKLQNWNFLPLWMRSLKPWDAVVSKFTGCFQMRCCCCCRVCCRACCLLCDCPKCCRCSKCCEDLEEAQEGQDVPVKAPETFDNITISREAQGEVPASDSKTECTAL
Type: cell-based
How it was run: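 Stable human NaPi-IIb CHO line (G418-selected), plated and cultured overnight; ³³PO4 added in buffer A and uptake run at room temperature. Cells washed with ice-cold buffer A, then uptake counted by liquid scintillation.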
With `CN1[C@@H](C(C)(C)C)C(O)=C(C(=O)Nc2cc(F)c(Br)c(F)c2)C(=O)N1Cc1cccc(F)c1F` [Example 240] the IC50 was 9.1 µM.
For `Cc1nc(NC(=O)C2=C(O)[C@H](C(C)(C)C)N(C)N(Cc3cccc(F)c3F)C2=O)ccc1Br` [Example 241], the IC50 was 16.5 µM.
With `CN1[C@@H](C(C)(C)C)C(O)=C(C(=O)Nc2ccc(Br)c(C(F)(F)F)n2)C(=O)N1Cc1cccc(F)c1F` [Example 242] the IC50 was 7.8 µM.
`CN1[C@@H](C(C)(C)C)C(O)=C(C(=O)Nc2ccc(Br)c(C(F)(F)F)c2)C(=O)N1Cc1cccc(F)c1F` [Example 243] gave an IC50 of 7.4 µM.
In the case of `CN1[C@@H](C(C)(C)C)C(O)=C(C(=O)Nc2cccc(C(F)(F)F)n2)C(=O)N1Cc1cccc(F)c1F` [Example 244], the IC50 is reported as 7.3 µM.
`CCN1[C@@H](C(C)(C)C)C(O)=C(C(=O)Nc2ccc(Cl)cc2-c2ccc(C(F)(F)F)nc2)C(=O)N1Cc1cccc(F)c1F` [Example 245] showed an IC50 of 7.7 µM.
In the case of `CCN1[C@@H](C(C)(C)C)C(O)=C(C(=O)Nc2cc(F)c(Br)c(F)c2)C(=O)N1Cc1cccc(F)c1F` [Example 246], the IC50 is reported as 8.6 µM.
In the case of `CC(C)(C)[C@H]1C(O)=C(C(=O)Nc2ccc(Cl)cc2-c2ccc(C(F)(F)F)nc2)C(=O)N(Cc2cccc(F)c2F)N1CC(F)(F)F` [Example 247], the IC50 is reported as 8.2 µM.
`CC(C)(C)[C@H]1C(O)=C(C(=O)Nc2cc(F)c(Br)c(F)c2)C(=O)N(Cc2cccc(F)c2F)N1CC(F)(F)F` [Example 248] showed an IC50 of 17.6 µM.
`CC(C)[C@@H]1C(O)=C(C(=O)Nc2ccc(C(F)(F)F)cc2-c2cc(C(F)(F)F)ncn2)C(=O)N(Cc2cccc(F)c2F)N1C` [Example 249] showed an IC50 of 9.8 µM.
`CC(C)[C@@H]1C(O)=C(C(=O)Nc2ccc(Cl)cc2-c2cc(C(F)(F)F)ncn2)C(=O)N(Cc2cccc(F)c2F)N1C` [Example 250] gave an IC50 of 17.9 µM.
With `CC(C)[C@@H]1C(O)=C(C(=O)Nc2ccc(Cl)cc2-c2ccc(C(F)(F)F)nc2)C(=O)N(Cc2cccc(F)c2F)N1C` [Example 251] the IC50 was 7.6 µM.
With `CC(C)[C@H]1C(O)=C(C(=O)Nc2ccc(C(F)(F)F)cc2-c2cc(C(F)(F)F)ncn2)C(=O)N(Cc2cccc(F)c2F)N1C` [Example 252] the IC50 was 9.5 µM.
In the case of `CC(C)[C@H]1C(O)=C(C(=O)Nc2ccc(C(F)(F)F)cc2-c2ccc(C(F)(F)F)nc2)C(=O)N(Cc2cccc(F)c2F)N1C` [Example 253], the IC50 is reported as 4.4 µM.
For `CC(C)[C@H]1C(O)=C(C(=O)Nc2cc(F)c(Br)c(F)c2)C(=O)N(Cc2cccc(F)c2F)N1C` [Example 254], the IC50 was 9.7 µM.
`CN1N(Cc2cccc(F)c2F)C(=O)C(C(=O)Nc2ccc(Cl)cc2-c2cc(C(F)(F)F)ncn2)=C(O)C12CCC2` [Example 255] was tested, and the IC50 was 9.8 µM.
With `CN1N(Cc2cccc(F)c2F)C(=O)C(C(=O)Nc2ccc(Cl)cc2-c2ccc(C(F)(F)F)nc2)=C(O)C12CCC2` [Example 256] the IC50 was 4.4 µM.
With `CN1N(Cc2cccc(F)c2F)C(=O)C(C(=O)Nc2cc(F)c(Br)c(F)c2)=C(O)C12CCC2` [Example 257] the IC50 was 6 µM.
With `CN1N(Cc2cccc(F)c2F)C(=O)C(C(=O)Nc2ccc(Br)c(C(F)(F)F)n2)=C(O)C12CCC2` [Example 258] the IC50 was 2.7 µM.
`Cc1nc(NC(=O)C2=C(O)C3(CCC3)N(C)N(Cc3cccc(F)c3F)C2=O)ccc1Br` [Example 259] was tested, and the IC50 was 10 µM.
Molecule `CN1N(Cc2cccc(F)c2F)C(=O)C(C(=O)Nc2ccc(C(F)(F)F)cc2-c2cc(C(F)(F)F)ncn2)=C(O)C12CCCC2` [Example 260] has an IC50 of 6.4 µM.
With `CN1N(Cc2cccc(F)c2F)C(=O)C(C(=O)Nc2ccc(Cl)cc2-c2cc(C(F)(F)F)ncn2)=C(O)C12CCCC2` [Example 261] the IC50 was 7.7 µM.
For `Cc1nc(NC(=O)C2=C(O)C3(CCCC3)N(C)N(Cc3cccc(F)c3F)C2=O)ccc1Br` [Example 262], the IC50 was 9.9 µM.
`CN1N(Cc2cccc(F)c2F)C(=O)C(C(=O)Nc2ccc(Br)c(C(F)(F)F)n2)=C(O)C12CCCC2` [Example 263] was tested, and the IC50 was 3 µM.
For `CN1[C@@H](C(C)(C)C)C(O)=C(C(=O)Nc2ccc(Cl)cc2-c2cc(C(F)(F)F)ncn2)C(=O)N1Cc1ccc(OCCN2CCOCC2)c(F)c1F` [Example 265, (3S)-3-tert-Butyl-N-[4-chloro-2-[6-(trifluoromethyl)pyrimidin-4-yl]phenyl]-1-[[2,3-difluoro-4-(2-morpholin-4-ylethoxy)phenyl]methyl]-4-hydroxy-2-methyl-6-oxo-3H-pyridazine-5-carboxamide], the IC50 was 13.3 µM.
Molecule `CN1[C@@H](C(C)(C)C)C(O)=C(C(=O)Nc2ccc(C(F)(F)F)cc2-c2ccc(C(F)(F)F)nc2)C(=O)N1Cc1ccc(OCCN2CCOCC2)c(F)c1F` [Example 266] has an IC50 of 11.6 µM.
Molecule `CSc1ccc(-c2cc(C(F)(F)F)ccc2NC(=O)C2=C(O)[C@H](C(C)(C)C)N(C)N(Cc3ccc(OCCN4CCOCC4)c(F)c3F)C2=O)cn1` [Example 268] has an IC50 of 7.4 µM.
Work on `CN1[C@@H](C(C)(C)C)C(O)=C(C(=O)Nc2ccc(C(F)(F)F)cc2-c2ccnc(C#N)c2)C(=O)N1Cc1ccc(OCCN2CCOCC2)c(F)c1F` [Example 271] yielded an IC50 of 17.3 µM.
For `CN1[C@@H](C(C)(C)C)C(O)=C(C(=O)Nc2ccc(Cl)cc2-c2cc(C#N)ncn2)C(=O)N1Cc1ccc(OCCN2CCOCC2)c(F)c1F` [Example 272], the IC50 was 19.5 µM.
Molecule `CN1[C@@H](C(C)(C)C)C(O)=C(C(=O)Nc2cnc(C(F)(F)F)nc2-c2ccc(C(F)(F)F)nc2)C(=O)N1Cc1ccc(OCCN2CCOCC2)c(F)c1F` [Example 273] has an IC50 of 13.2 µM.
`Cc1c(C#N)ncnc1-c1cc(Cl)ccc1NC(=O)C1=C(O)[C@H](C(C)(C)C)N(C)N(Cc2ccc(OCCN3CCOCC3)c(F)c2F)C1=O` [Example 274] gave an IC50 of 17 µM.
`Cc1c(Cl)ncnc1-c1cc(Cl)ccc1NC(=O)C1=C(O)[C@H](C(C)(C)C)N(C)N(Cc2ccc(OCCN3CCOCC3)c(F)c2F)C1=O` [Example 275] was tested, and the IC50 was 16.8 µM.
In the case of `Cc1c(Cl)ncnc1-c1cc(C(F)(F)F)ccc1NC(=O)C1=C(O)[C@H](C(C)(C)C)N(C)N(Cc2ccc(OCCN3CCOCC3)c(F)c2F)C1=O` [Example 276], the IC50 is reported as 15.8 µM.
With `CN1[C@@H](C(C)(C)C)C(O)=C(C(=O)Nc2ccc(C(F)(F)F)cc2C(F)(F)F)C(=O)N1Cc1ccc(OCCN2CCOCC2)c(F)c1F` [Example 277] the IC50 was 17.8 µM.
In the case of `Cc1c(-c2cc(C(F)(F)F)ccc2NC(=O)C2=C(O)[C@H](C(C)(C)C)N(C)N(Cc3ccc(OCCN4CCOCC4)c(F)c3F)C2=O)ncnc1C(F)(F)F` [Example 278], the IC50 is reported as 6.6 µM.
`CC(C)[C@H]1C(O)=C(C(=O)Nc2ccc(C(F)(F)F)cc2-c2ccc(C(F)(F)F)nc2)C(=O)N(Cc2ccc(OCCN3CCOCC3)c(F)c2F)N1C` [Example 280] gave an IC50 of 11.9 µM.
Work on `CC(C)[C@H]1C(O)=C(C(=O)Nc2ccc(Cl)cc2-c2ccc(C(F)(F)F)nc2)C(=O)N(Cc2ccc(OCCN3CCOCC3)c(F)c2F)N1C` [Example 281] yielded an IC50 of 18.8 µM.
For `CN1N(Cc2ccc(OCCN3CCOCC3)c(F)c2F)C(=O)C(C(=O)Nc2ccc(C(F)(F)F)cc2-c2ccc(C(F)(F)F)nc2)=C(O)C12CCC2` [Example 282], the IC50 was 11.1 µM.
With `Cc1c(C#N)ncnc1-c1cc(C(F)(F)F)ccc1NC(=O)C1=C(O)C2(CCC2)N(C)N(Cc2ccc(OCCN3CCOCC3)c(F)c2F)C1=O` [Example 283] the IC50 was 17.7 µM.
Work on `CN1N(Cc2ccc(OCCN3CCOCC3)c(F)c2F)C(=O)C(C(=O)Nc2ccc(C(F)(F)F)cc2-c2ncnc(C(F)(F)F)c2Cl)=C(O)C12CCC2` [Example 284] yielded an IC50 of 7.8 µM.
`Cc1c(-c2cc(C(F)(F)F)ccc2NC(=O)C2=C(O)C3(CCC3)N(C)N(Cc3ccc(OCCN4CCOCC4)c(F)c3F)C2=O)ncnc1C(F)(F)F` [Example 285] showed an IC50 of 8.5 µM.
`CN1N(Cc2ccc(OCCN3CCOCC3)c(F)c2F)C(=O)C(C(=O)Nc2ccc(Cl)cc2-c2cc(C(F)(F)F)ncn2)=C(O)C12CCCC2` [Example 286] gave an IC50 of 15.8 µM.
`CN1N(Cc2ccc(OCCN3CCOCC3)c(F)c2F)C(=O)C(C(=O)Nc2ccc(C(F)(F)F)cc2-c2ccc(C(F)(F)F)nc2)=C(O)C12CCCC2` [Example 287] gave an IC50 of 8 µM.
Work on `CN1N(Cc2ccc(OCCN3CCOCC3)c(F)c2F)C(=O)C(C(=O)Nc2ccc(Cl)cc2-c2ccc(C(F)(F)F)nc2)=C(O)C12CCCC2` [Example 288] yielded an IC50 of 11 µM.
`CSc1ccc(-c2cc(C(F)(F)F)ccc2NC(=O)C2=C(O)C3(CCCC3)N(C)N(Cc3ccc(OCCN4CCOCC4)c(F)c3F)C2=O)cn1` [Example 289] gave an IC50 of 16.3 µM.
Molecule `Cc1c(-c2cc(C(F)(F)F)ccc2NC(=O)C2=C(O)C3(CCCC3)N(C)N(Cc3ccc(OCCN4CCOCC4)c(F)c3F)C2=O)ncnc1C(F)(F)F` [Example 290] has an IC50 of 7 µM.
`CCC1(CC)C(O)=C(C(=O)Nc2ccc(C(F)(F)F)cc2-c2cc(C(F)(F)F)ncn2)C(=O)N(Cc2ccc(OCCN3CCOCC3)c(F)c2F)N1C` [Example 291] was tested, and the IC50 was 14.7 µM.
For `CCC1(CC)C(O)=C(C(=O)Nc2ccc(Cl)cc2-c2cc(C(F)(F)F)ncn2)C(=O)N(Cc2ccc(OCCN3CCOCC3)c(F)c2F)N1C` [Example 292], the IC50 was 18.4 µM.
Work on `CCC1(CC)C(O)=C(C(=O)Nc2ccc(C(F)(F)F)cc2-c2ccc(C(F)(F)F)nc2)C(=O)N(Cc2ccc(OCCN3CCOCC3)c(F)c2F)N1C` [Example 293] yielded an IC50 of 10.7 µM.
Molecule `CCC1(CC)C(O)=C(C(=O)Nc2ccc(Cl)cc2-c2ccc(C(F)(F)F)nc2)C(=O)N(Cc2ccc(OCCN3CCOCC3)c(F)c2F)N1C` [Example 294] has an IC50 of 13.4 µM.
